Laboratory results reported in PMC6010013, “Synthesis, physiochemical property and antimicrobial activity of novel quaternary ammonium salts” (Journal of Enzyme Inhibition and Medicinal Chemistry, 2017).

Columns and labels:
Aspergillus niger [1] = experiment: MBC, agar plating of dilutions without growth; assay type: cell-based; settings: 99.9% bactericidal, read-out: Minimal bactericidal concentration (MBC)
Description: (§1) In this paper, antimicrobial activities of 24 QASs were detected by quantitative tests. […] Benzalkonium chloride (BZK) and chlorhexidine acetate (CA) was selected as positive controls. Representative compound POT-C12QAS (2) which synthesised and evaluated in previous work was also taken as a reference compound in MIC, MBC and cytotoxicity tests. […]
(§2) agriculture were used as target pathogens in this study, including three strains of Gram-positive bacteria (S. Aureus, α-H-tococcus, β-H-tococcus), three strains of Gram-negative bacteria (E. coli, P. aeruginosa, Proteus vulgaris) and four strains of fungi (Canidia albicans, Cytospora mandshurica, Physalospora piricola, Aspergillus niger). The antimicrobial tests were assayed, according to standard CLSI methods for antimicrobial dilution susceptibility tests to measure the minimum inhibitory concentration (MIC) and minimum bactericidal concentration (MBC)2.
(§3) A broth tube dilution method was followed to determine the MIC values for all the screened compounds against the micro-organisms, and for comparison benzalkonium chloride (BZK) and chlorhexidine acetate (CA) was used as a reference. For sample preparation, each of the test compounds and reference were dissolved in DMSO or sterile water at a concentration of 1600 μg/mL, and further dilutions of the compounds and reference in culture medium MHB (Muller-Hinton Broth) were prepared at the required quantities of 400, 200, 100 etc., down to 0.39 μg/mL. Bacterial strains and fungal strains were maintained on MHA (Muller-Hinton Agar) medium at 37℃ or 28 ℃ for 12 h or 72h, respectively. The microbial inocula were prepared by suspension in 10 mL of culture medium for colonies from culture on MHA. The cell density of each inoculum was adjusted in culture medium of a 0.5 McFarland standard (1-2×10^8 CFU/mL). The final amount applied was 10^5 CFU/mL for bacteria and fungi. The microbial inocula were added to the twofold diluted samples. One growth control tube was prepared […] the addition of the compound and one blank tube was prepared without the addition of the microorganism. MIC values were read after incubation at 37℃ or 28 ℃ for bacterial and fungal strains, respectively. After 12 h or 72h, the last tube with no growth of micro-organisms was recorded to represent the MIC value expressed in μg/ml. All experiments were carried out three times. […]
(§4) was placed on agar plates in triplicate, and incubated at 37℃ or 28 ℃ for 12 h or 72h. The number of colonies on each plate was read, and the MBC was determined as the lowest concentration that achieved a 99.9% bactericidal in the agar plate.

Canidia albicans [2] = experiment: MBC, agar plating of dilutions without growth; assay type: cell-based; settings: 99.9% bactericidal, read-out: Minimal bactericidal concentration (MBC)
Description: as §1, §2, §3, §4

E. coli [3] = experiment: MBC, agar plating of dilutions without growth; assay type: cell-based; settings: Escherichia coli, 99.9% bactericidal, read-out: Minimal bactericidal concentration (MBC)
Description: as §1, §2, §3, §4

Proteus vulgaris [4] = experiment: MBC, agar plating of dilutions without growth; assay type: cell-based; settings: 99.9% bactericidal, read-out: Minimal bactericidal concentration (MBC)
Description: as §1, §2, §3, §4

α-H-tococcus [5] = experiment: MBC, agar plating of dilutions without growth; assay type: cell-based; settings: 99.9% bactericidal, read-out: Minimal bactericidal concentration (MBC)
Description: as §1, §2, §3, §4

Cytospora mandshurica [6] = experiment: MBC, agar plating of dilutions without growth; assay type: cell-based; settings: Cytospora, 99.9% bactericidal, read-out: Minimal bactericidal concentration (MBC)
Description: as §1, §2, §3, §4

S. aureus [7] = experiment: MBC, agar plating of dilutions without growth; assay type: cell-based; settings: Staphylococcus aureus, 99.9% bactericidal, read-out: Minimal bactericidal concentration (MBC)
Description: as §1, §2, §3, §4

P. aeruginosa [8] = experiment: MBC, agar plating of dilutions without growth; assay type: cell-based; settings: Pseudomonas aeruginosa, 99.9% bactericidal, read-out: Minimal bactericidal concentration (MBC)
Description: as §1, §2, §3, §4

Physalospora piricola [9] = experiment: MBC, agar plating of dilutions without growth; assay type: cell-based; settings: 99.9% bactericidal, read-out: Minimal bactericidal concentration (MBC)
Description: as §1, §2, §3, §4

Aspergillus niger [10] = experiment: MIC, broth tube dilution; assay type: cell-based; settings: 72 h, 28 ℃, read-out: Minimal inhibitory concentration (MIC)
Description: as §1, §2, §3

Canidia albicans [11] = experiment: MIC, broth tube dilution; assay type: cell-based; settings: 72 h, 28 ℃, read-out: Minimal inhibitory concentration (MIC)
Description: as §1, §2, §3

E. coli [12] = experiment: MIC, broth tube dilution; assay type: cell-based; settings: Escherichia coli, 12 h, 37℃, read-out: Minimal inhibitory concentration (MIC)
Description: as §1, §2, §3

Proteus vulgaris [13] = experiment: MIC, broth tube dilution; assay type: cell-based; settings: 12 h, 37℃, read-out: Minimal inhibitory concentration (MIC)
Description: as §1, §2, §3

β-H-tococcus = experiment: MIC, broth tube dilution; assay type: cell-based; settings: 12 h, 37℃, read-out: Minimal inhibitory concentration (MIC)
Description: as §1, §2, §3

α-H-tococcus [14] = experiment: MIC, broth tube dilution; assay type: cell-based; settings: 12 h, 37℃, read-out: Minimal inhibitory concentration (MIC)
Description: as §1, §2, §3

Cytospora mandshurica [15] = experiment: MIC, broth tube dilution; assay type: cell-based; settings: Cytospora, 72 h, 28 ℃, read-out: Minimal inhibitory concentration (MIC)
Description: as §1, §2, §3

S. aureus [16] = experiment: MIC, broth tube dilution; assay type: cell-based; settings: Staphylococcus aureus, 12 h, 37℃, read-out: Minimal inhibitory concentration (MIC)
Description: as §1, §2, §3

P. aeruginosa [17] = experiment: MIC, broth tube dilution; assay type: cell-based; settings: Pseudomonas aeruginosa, 12 h, 37℃, read-out: Minimal inhibitory concentration (MIC)
Description: as §1, §2, §3

Physalospora piricola [18] = experiment: MIC, broth tube dilution; assay type: cell-based; settings: 72 h, 28 ℃, read-out: Minimal inhibitory concentration (MIC)
Description: as §1, §2, §3

Cytotoxicity, MTT assay = assay type: cell-based, human; settings: human, MTT, 24 h
Experimental: These six series of antimicrobial compounds may be applied to daily or clinical disinfectants for unbroken skin and trauma, or agricultural fungicides alternatively. Thus, their cytotoxicity for skin or body tissues are crucial. In this study, the cytotoxicity of target compounds was evaluated for human immortalised epidermal (HaCat) and human normal liver (LO2) cell line using MTT assay. […] The IC50 values of 5a, 6a, 10a, 16a, 16 b were about more than 50 μg/mL for LO2 and HaCat.
Cytotoxicity Testing with MTT Method
Human immortalized epidermal cells (HaCat) line were cultured in Dulbecco’s modified Eagle’s medium containing 10% fetal bovine serum, 1% penicillin, and 1% streptomycin at 37°C in a 5% CO2/95% air incubator MCO-15AC (SANYO). Human normal liver cells (LO2) line were cultured in Roswell Park Memorial Institute medium containing 10% fetal bovine serum, 1% penicillin, and 1% streptomycin at 37°C in a 5% CO2/95% air incubator MCO-15AC (SANYO). HaCat or LO2 cells in 96-well plate were adjusted to 1.0 × 10^5 cells mL-1 and cells were passed and cell supernatant was pour out before plating on glass slide at 37°C, 5% CO2 for 24 h. Cells were pretreated with 100 μL QAS for 24 h and cell supernatant with QAS was pour out and washed with PBS buffer system. Then, the cells were treated with the MTT solution (MTT, 3-(4,5-dimethythiazol-2-yl)-2,5-diphenyl-tetrazolium bromide, 20 μL, 5 mg/mL) for 4 h. The dark blue formazan crystal formed in the intact cells was solubilized with dimethyl sulfoxide, and absorbance at 570 nm was measured with a microplate reader (Multiskan MK3-Thermo Labsystems, USA). The results were expressed as percentage of the control value from the normal cells without treatments of QAS. […]

[19] = LO2 human normal liver cells, LO2 cells
[20] = HaCat human immortalised epidermal cells, HaCat cells

Row | Structure (SMILES) | MBC (Aspergillus niger [1]) [µg/mL] | MBC (Canidia albicans [2]) [µg/mL] | MBC (E. coli [3]) [µg/mL] | MBC (Proteus vulgaris [4]) [µg/mL] | MBC (α-H-tococcus [5]) [µg/mL] | MBC (Cytospora mandshurica [6]) [µg/mL] | MBC (S. aureus [7]) [µg/mL] | MBC (P. aeruginosa [8]) [µg/mL] | MBC (Physalospora piricola [9]) [µg/mL] | MIC (Aspergillus niger [10]) [µg/mL] | MIC (Canidia albicans [11]) [µg/mL] | MIC (E. coli [12]) [µg/mL] | MIC (Proteus vulgaris [13]) [µg/mL] | MIC (β-H-tococcus) [µg/mL] | MIC (α-H-tococcus [14]) [µg/mL] | MIC (Cytospora mandshurica [15]) [µg/mL] | MIC (S. aureus [16]) [µg/mL] | MIC (P. aeruginosa [17]) [µg/mL] | MIC (Physalospora piricola [18]) [µg/mL] | IC50 at 24 h (Cytotoxicity, MTT assay; [19]) [µg/mL] | other results
1 | C[N+](CCO)(CCO)CCCCCCSc1nnc(-c2ccc(C(F)(F)F)cc2)o1 [Compound 6a] | 25 | 50 | 50 | 100 | 50 | 25 | 50 | 100 | 12.5 | 25 | 50 | 50 | 100 | 25 | 50 | 12.5 | 50 | 100 | 6.25 | > 50 | IC50 at 24 h (Cytotoxicity, MTT assay; HaCat cells): > 50 µg/mL
2 | C[N+](CCO)(CCO)CCCCCCCCCCCCSc1nnc(-c2ccc(C(F)(F)F)cc2)o1.[Br-] [Compound 6d] | 6.25 | 12.5 | 25 | 25 | 6.25 | 6.25 | 12.5 | 50 | 1.56 | 6.25 | 12.5 | 25 | 25 | 3.12 | 6.25 | 6.25 | 6.25 | 50 | 1.56 | 5.86 ± 0.61 | IC50 at 24 h (Cytotoxicity, MTT assay; [20]): 5.25 ± 0.37 µg/mL
3 | C[N+](CCO)(CCO)CCCCCCSc1nnc(-c2ccc(F)cc2)o1 [Compound 5a] | 50 | 50 | 100 | 100 | 50 | 50 | 100 | 100 | 12.5 | 50 | 50 | 100 | 100 | 25 | 50 | 50 | 100 | 100 | 12.5 | > 50 | IC50 at 24 h (Cytotoxicity, MTT assay; HaCat cells): > 50 µg/mL
4 | C[N+](CCO)(CCO)CCCCCCCCCCCCSc1nnc(-c2ccccc2)o1 [Compound 2, reference compound] | 3.12 | 12.5 | 50 | 50 | 6.25 | 6.25 | 12.5 | 25 | 3.12 | 3.12 | 6.25 | 25 | 25 | 6.25 | 6.25 | 3.12 | 6.25 | 12.5 | 3.12 | 14.2 ± 2.15 | IC50 at 24 h (Cytotoxicity, MTT assay; [20]): 18.3 ± 2.21 µg/mL
5 | C[N+](CCO)(CCO)CCCCCCCCCCCCSc1nc2ccccc2s1 [Compound 13d] | 6.25 | 6.25 | 25 | 25 | 12.5 | ~6.25 | 6.25 | 25 | 3.12 | ~3.12 | ~6.25 | ~25 | ~25 | ~1.56 | ~12.5 | ~1.56 | ~6.25 | ~25 | ~3.12 | 8.96 ± 0.46 | IC50 at 24 h (Cytotoxicity, MTT assay; HaCat cells): 6.02 ± 0.35 µg/mL
